Data: patent US5545656A, “2-Oxidole-1-carboxamide pharmaceutical agents for the treatment of alzheimer's disease” (Pfizer Inc., priority 1995, dated 1996)

What was measured:
Type in all cases: cell-based
[1] = system: IL-1β release by human monocytes; assay: ATP-induced IL-1β posttranslational processing (ATP kick), ELISA; conditions: Monocyte, LPS-stimulated human monocytes, IL-1β ELISA, read-out: Human Monocyte AtP kick % Inh.
Procedure: PROTOCOL FOR ATP-INDUCED IL-Iβ POSTTRANSLATIONAL PROCESSING
Cells: Human monocytes were isolated by Ficoll-Hypaque centrifugation of heparinized blood. The monocyte band off the gradient was collected, diluted with RPMI 1640, 5% fetal bovine serum (FBS), 20 mM N-[2[hydroxyethyl]piperazine-N-[2-ethanesulfonic acid] (Hepes), pH 7.3 (40 ml) and the cells were collected by centrifugation. The cell pellet was washed twice with 30 ml of RPMI 1640, 5% FBS, 20 mM Hepes (Maintenance Medium). The monocytes were resuspended in 50 ml of the Maintenance Medium. Into each well of a 96 well plate was added […] mononuclear cells. The cell suspension was diluted to a final concentration of 1.5×10^5 mononuclear cells. (To accomplish this, the cell suspension was diluted to a final concentration of 1.5×10^6 cell/ml and 0.2 ml was added to each well of the plate.) After incubating at 37° C. for 2 hours, the supernatant containing non-adherent cells was removed by aspiration. The adherent cells were washed once with 0.15 ml of Maintenance medium. Then, 0.15 ml of fresh Maintenance Medium was added and the cells were incubated overnight at 37° C.
Stimulation: Lipopolysaccharide (LPS) was added to a final concentration of 10 ng/ml and incubated at 37° C. for 2 hours. […]

[2] = system: production of PGD2 (cyclooxygenase pathway) by RBL-1 cells; assay: Inhibition of the cyclooxygenase pathway (PGD2 formation) in RBL-1 cells; conditions: Rattus norvegicus, 5 min, [14C]-arachidonic acid plus calcium ionophore, N in brackets, read-out: RBL-cells PGD2 formation IC50 ± SD (N)
Procedure: METHOD FOR ASSESSING THE INHIBITION OF THE CYCLOOXYGENASE PATHWAY IN (RBL) CELLS
a) RBL-1 cell incubations. […] A 0.5 ml allquot of cell suspension was preincubated at 30° C. for 10 minutes with 1 μl dimethyl sulfoxide (DMSO) solution of drug. […] Five minutes later, the incubation was terminated by the addition of a 0.27 ml volume of acetonitrile (ACN)/acetic acid (HOAc) (100:3). The mixture was then clarified of precipitated protein by centrifugation. Analysis of 5-LO/COX pathway products was performed by radioactivity monitoring after separation by high performance liquid chromatography (HPLC). […] The area under the curve (AUC) as measured in integration units for each product was compared to the average AUC value for untreated (no drug) controls. […] Half-maximal (IC50) points were estimated from these curves.

[3] = system: IL-1β release by human monocytes; assay: ATP kick, slightly different assay that employed metabolically labeled cells; conditions: Monocyte, read-out: Human Monocyte AtP kick IC50 (No. Trials), starred values
Description: *Values for tenidap (the first compound in the table), and in one case
ilonidap (the second compound in the table) were derived from a slightly
different assay that employed metabolically labeled cells.

Row | SMILES | inhibition at 19 µM [1] [%] | IC50 [2] [µM] | IC50 [3] [µM]
1 | Cc1ccc2c(c1)C(C(=O)c1cccs1)C(=O)N2C(N)=O (centres unmarked) [CH3 H 2'-thienyl] | 32 | 99 | –
2 | NC(=O)N1C(=O)C(C(=O)c2ccoc2)c2cc(Cl)ccc21 (centres unmarked) [Cl H 3'-furyl] | – | 3.2 | –
3 | NC(=O)N1C(=O)C(C(=O)c2ccsc2)c2cc(Cl)ccc21 (centres unmarked) [Cl H 3'-thienyl] | 14 | 0.7 | –
4 | NC(=O)N1C(=O)C(C(=O)C(F)(F)F)c2cc(Cl)ccc21 (centres unmarked) [Cl H Trifluoromethyl] | – | 37 | –
5 | NC(=O)N1C(=O)C(C(=O)c2cccs2)c2cc(Cl)ccc21 (centres unmarked) [tenidap, 5-chloro-2,3-dihydro-2-oxo-3-(2-thienylcarbonyl)-indole-1-carboxamide] | – | 0.02 ± 0.02 | 40
